Patent US10226453B2, “3-(1H-indol-2-yl)-1H-pyrazolo[4,3-B]pyridines and therapeutic uses thereof” (Samumed, LLC, priority 2015, dated 2019)

Columns and labels:
[1] = tested on: primary human mesenchymal stem cells (hMSCs); test: Induction of chondrogenesis in primary human mesenchymal stem cells (hMSCs), nodule count; assay type: cell-based; conditions: 144 h, 6 days; for Emax: relative to TGF-β3 (10 ng/mL) positive control, read-out: Max. Activity as % TGF-β3 activity; for EC50: concentration required to induce 50% levels of chondrogenesis of TGF-β3 control, read-out: Conc (nM) of 50% TGF-β3 activity
Procedure: Representative compounds were screened using primary human mesenchymal stem cells (hMSCs) to determine their ability to induce chondrogenesis (process by which cartilage is developed).
Primary human mesenchymal stem cells (hMSCs) were purchased from Lonza (Walkersville, Md.) and expanded in Mesenchymal Stem Cell Growth Media (Lonza). Cells between passage 3 and 6 were used for the experiments.
Each compound was dissolved in DMSO as a 10 mM stock and used to prepare compound source plates. Serial dilution (1:3, 6-point dose-response curves from 2700 nM to 10 nM) and compound transfer was performed using the ECHO 550 (Labcyte, Sunnyvale, Calif.) into 96-well clear bottom assay plates (Greiner Bio-One) with appropriate DMSO backfill for a final DMSO concentration of 0.03%. hMSCs were plated at 20,000 cells/well in 250 μL/well Incomplete Chondrogenic Induction Medium (Lonza; DMEM, dexamethasone, ascorbate, insulin-transferrin-selenium [ITS supplement], gentamycin-amphotericin [GA-1000], sodium pyruvate, proline and L-glutamine). TGF-β3 (10 ng/mL) was used as a positive control for differentiation while negative control wells were treated with 75 nL DMSO for normalization and calculating EC50 values. Cells were incubated at 37° C. and 5% CO2 for 6 days. To image chondrogenic nodules, the cells were fixed using 4% formaldehyde (Electron Microscopy Sciences), and stained with 2 μg/mL Rhodamine B (Sigma-Aldrich) and 20 μM Nile Red (Sigma-Aldrich) [Johnson K., et. al, A Stem Cell-Based Approach to Cartilage Repair, Science, (2012). 336(6082), 717-721]. The nodules imaged (4 images per well at 4× magnification) by excitation at 531 nm and emission at 625 nm and quantified using the CellInsight CX5 (Thermo Scientific). Number of nodules in each well was normalized to the average of 3 DMSO treated wells on the same plate using Excel (Microsoft Inc.). The normalized averages (fold change over DMSO) of 3 replicate wells for each compound concentration were calculated. Due to solubility limitations of some of the compounds, curve fitting was incomplete leading to inaccurate EC50 determinations.
Using TGF-β3 as a positive control, the concentration of representative compounds required to induce 50% levels of chondrogenesis is reported. In addition, the maximum activity of each compound and the respective dose that each compound reached maximum chondrogenesis activity is reported.

SW480 colon cancer cells = test: Cell viability assay (CellTiter-Blue), SW480 colon cancer cells; assay type: cell-based; conditions: Homo sapiens, 96 h, four days; for EC50: CellTiter-Blue; for inhibition at 10 µM: given where EC50 >10 μM, read-out: percent inhibition at 10 μM
Procedure, shortened: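 SW480 cells (~2×10^3/well) exposed four days at 37 °C to 8-point 1:3 dilutions, 10 μM down to 0.0045 μM. Viability from resazurin reduction (CellTiter-Blue, ~3 h, Ex 560/Em 590); EC50 by non-linear regression, or percent inhibition at 10 μM where EC50 exceeds 10 μM.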

Row | EC50 (SW480 colon cancer cells) [nM] | EC50 [1] [nM] | SMILES | Emax [1] [%] | inhibition at 10 µM (SW480 colon cancer cells) [%]
1 | > 10000 |  | c1ccc(-c2cccc3[nH]c(-c4n[nH]c5ccc(-c6cncnc6)nc45)cc23)nc1 [Compound 167, 3-(4-(Pyridin-2-yl)-1H-indol-2-yl)-5-(pyrimidin-5-yl)-1H-pyrazolo[4,3-b] pyridine] | 41 | 13.8
2 | 4440 | 100 | CCCCC(=O)Nc1cncc(-c2ccc3[nH]nc(-c4cc5c(N6CCCCC6)cccc5[nH]4)c3n2)c1 [Compound 187, N-(5-(3-(4-(Piperidin-1-yl)-1H-indol-2-yl)-1H-pyrazolo[4,3-b]pyridin-5-yl)pyridin-3-yl)pentanamide] | 69 | 
3 | 4740 | 10 | Cc1ccncc1-c1ccc2[nH]nc(-c3cc4c(N5CCN(C)CC5)cccc4[nH]3)c2n1 [Compound 229, 3-(4-(4-Methylpiperazin-1-yl)-1H-indol-2-yl)-5-(4-methylpyridin-3-yl)-1H-pyrazolo[4,3-b]pyridine] | 63 | 
4 | 3910 |  | CN1CCN(c2cccc3[nH]c(-c4n[nH]c5ccc(-c6cncc(NC(=O)c7ccccc7)c6)nc45)cc23)CC1 [Compound 235, N-(5-(3-(4-(4-Methylpiperazin-1-yl)-1H-indol-2-yl)-1H-pyrazolo[4,3-b]pyridin-5-yl)pyridin-3-yl)benzamide] | 19 | 
5 | > 10000 | 100 | CN1CCN(c2cccc3[nH]c(-c4n[nH]c5ccc(-c6cncnc6)nc45)cc23)CC1 [Compound 251, 3-(4-(4-Methylpiperazin-1l-yl)-1H-indol-2-yl)-5-(pyrimidin-5-yl)-1H-pyrazolo[4,3-b]pyridine] | 67 | 15.3
6 | 2940 |  | CN(C)Cc1cncc(-c2ccc3[nH]nc(-c4cc5ccccc5[nH]4)c3n2)c1 [Compound 265, 1-(5-(3-(1H-Indol-2-yl)-1H-pyrazolo[4,3-b]pyridin-5-yl)pyridin-3-yl)-N,N-dimethylmethanamine] | 21 | 
7 | 590 | 2700 | FC1(F)CCN(Cc2cncc(-c3ccc4[nH]nc(-c5cc6ccccc6[nH]5)c4n3)c2)C1 [Compound 278, 5-(5-((3,3-Difluoropyrrolidin-1-yl)methyl)pyridin-3-yl)-3-(1H-indol-2-yl)-1H-pyrazolo[4,3-b]pyridine] | 293 | 
8 | 1910 | 2700 | CN(C)c1cncc(-c2ccc3[nH]nc(-c4cc5c(-c6ccoc6)cccc5[nH]4)c3n2)c1 [Compound 315, 5-(3-(4-(Furan-3-yl)-1H-indol-2-yl)-1H-pyrazolo[4,3-b]pyridin-5-yl)-N,N-dimethylpyridin-3-amine] | 80 | 
9 | 3450 |  | c1cc(-c2ccoc2)c2cc(-c3n[nH]c4ccc(-c5cncc(CNCC6CCCC6)c5)nc34)[nH]c2c1 [Compound 333, 1-Cyclopentyl-N-((5-(3-(4-(furan-3-yl)-1H-indol-2-yl)-1H-pyrazolo[4,3-b]pyridin-5-yl)pyridin-3-yl)methyl)methanamine] | 25 | 
10 | 290 | 2700 | CN(C)CCNc1cc(F)cc(-c2cccc3[nH]c(-c4n[nH]c5ccc(-c6cccnc6)nc45)cc23)c1 [Compound 452, N^1-(3-Fluoro-5-(2-(5-(pyridin-3-yl)-1H-pyrazolo[4,3-b]pyridin-3-yl)-1H-indol-4-yl)phenyl)-N^2,N^2-dimethylethane-1,2-diamine] | 67 | 
11 | 1180 |  | CN(C)CCNc1cc(F)cc(-c2cccc3[nH]c(-c4n[nH]c5ccc(-c6cncc(CN7CCCCC7)c6)nc45)cc23)c1 [Compound 463, N^1-(3-Fluoro-5-(2-(5-(5-(piperidin-1-ylmethyl)pyridin-3-yl)-1H-pyrazolo [4,3-b]pyridin-3-yl)-1H-indol-4-yl)phenyl)-N^2,N^2-dimethylethane-1,2-diamine] | 48 | 
12 | 1300 | 10 | CN(C)CCNc1cc(F)cc(-c2cccc3[nH]c(-c4n[nH]c5ccc(-c6cncnc6)nc45)cc23)c1 [Compound 475, N^1-(3-Fluoro-5-(2-(5-(pyrimidin-5-yl)-1H-pyrazolo[4,3-b]pyridin-3-yl)-1H-indol-4-yl)phenyl)-N^2,N^2-dimethylylethane-1,2-diamine] | 181 | 
13 | 5900 |  | CN(C)CCNc1cc(F)cc(-c2cccc3[nH]c(-c4n[nH]c5ccc(-c6ccccn6)nc45)cc23)c1 [Compound 476, N^1-(3-Fluoro-5-(2-(5-(pyridin-2-yl)-1H-pyrazolo[4,3-b]pyridin-3-yl)-1H-indol-4-yl)phenyl)-N^2,N^2-dimethylethane-1,2-diamine] | 42 | 
14 | 592 | 900 | Cc1ccncc1-c1ccc2[nH]nc(-c3cc4c(-c5cc(F)cc(CNS(C)(=O)=O)c5)cccc4[nH]3)c2n1 [Compound 481, N-(3-Fluoro-5-(2-(5-(4-methylpyridin-3-yl)-1H-pyrazolo[4,3-b]pyridin-3-yl)-1H-indol-4-yl)benzyl)methanesulfonamide] | 143 | 
15 | 1880 | 900 | c1cc(-c2ccncc2)c2cc(-c3n[nH]c4ccc(-c5cncc(OCCN6CCCC6)c5)nc34)[nH]c2c1 [Compound 606, 3-(4-(Pyridin-4-yl)-1H-indol-2-yl)-5-(5-(2-(pyrrolidin-1-yl)ethoxy)pyridin-3-yl)-1H-pyrazolo[4,3-b]pyridine] | 74 | 
16 | > 10000 |  | O=C(CC1CCNCC1)Nc1cncc(-c2ccc3[nH]nc(-c4cc5c(-c6ccccn6)cccc5[nH]4)c3n2)c1 [Compound 621, 2-(Piperidin-4-yl)-N-(5-(3-(4-(pyridin-2-yl)-1H-indol-2-yl)-1H-pyrazolo[4,3-b]pyridin-5-yl)pyridin-3-yl)acetamide] | 8 | 51
17 | 3940 |  | c1cc(N2CCCCC2)c2cc(-c3n[nH]c4ccc(-c5cncc(OC6CCNCC6)c5)nc34)[nH]c2c1 [Compound 636, 3-(4-(Piperidin-1-yl)-1H-indol-2-yl)-5-(5-(piperidin-4-yloxy)pyridin-3-yl)-1H-pyrazolo[4,3-b]pyridine] | 34 | 
